Key:
Experiment in all cases: relative viability (nuclei count vs DMSO), 5 days (fraction); higher = more cells survive
Trametinib + Crizotinib = compound: CC(=O)Nc1cccc(-n2c(=O)n(C3CC3)c(=O)c3c(Nc4ccc(I)cc4F)n(C)c(=O)c(C)c32)c1 [Trametinib] + C[C@@H](Oc1cc(-c2cnn(C3CCNCC3)c2)cnc1N)c1c(Cl)ccc(F)c1Cl [Crizotinib] (partner 1 µM)
Method in brief: (§1)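 Lung cancer cell lines in 1536-well plates got either a single drug or a fixed anchor-drug dose together with five library-drug doses (not always all listed) in √10 steps, by pin tool, on the day after seeding. Nuclei were counted after 5 days, and relative viability is the treated-to-vehicle ratio of nuclei counts. Values are medians of duplicate plates.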

[1] = compound: CN1C=C(C2=CC=CC=C21)/C=C\3/C4=C(C=CC=N4)NC3=O + C[C@@H](Oc1cc(-c2cnn(C3CCNCC3)c2)cnc1N)c1c(Cl)ccc(F)c1Cl [Crizotinib] (partner 1 µM)
Method in brief: as §1

[2] = compound: CN1C=C(C2=CC=CC=C21)/C=C\3/C4=C(C=CC=N4)NC3=O + Nc1nc2[nH]cc(CCc3ccc(C(=O)N[C@@H](CCC(=O)O)C(=O)O)cc3)c2c(=O)[nH]1 [Pemetrexed] (partner 0.2 µM)
Method in brief: as §1

Trametinib + Linsitinib = compound: CC(=O)Nc1cccc(-n2c(=O)n(C3CC3)c(=O)c3c(Nc4ccc(I)cc4F)n(C)c(=O)c(C)c32)c1 [Trametinib] + C[C@]1(O)C[C@@H](c2nc(-c3ccc4ccc(-c5ccccc5)nc4c3)c3c(N)nccn32)C1 [Linsitinib] (partner 1 µM)
Method in brief: as §1

In the case of NCI-H2170, the relative viability (Trametinib + Crizotinib; first compound 0.0025 µM) is reported as 1.16, the relative viability (Trametinib + Crizotinib; first compound 0.007906 µM) is reported as 1.07 and the relative viability (Trametinib + Crizotinib; first compound 0.07906 µM) is reported as 1.1. For the same cell line, the relative viability (Trametinib + Crizotinib; first compound 0.25 µM) was 1.04, the relative viability ([1]; first compound 0.06325 µM) was 1.13 and the relative viability ([1]; first compound 0.2 µM) was 1.35. It also gave a relative viability ([1]; first compound 0.6325 µM) of 1.16, a relative viability ([1]; first compound 2 µM) of 1.15 and a relative viability ([2]; first compound 0.02 µM) of 0.261. For the same cell line, the relative viability ([2]; first compound 0.06325 µM) was 0.254, the relative viability ([2]; first compound 0.2 µM) was 0.292 and the relative viability ([2]; first compound 0.6325 µM) was 0.264. It also gave a relative viability ([2]; first compound 2 µM) of 0.257.

In the case of NCI-H1395, the relative viability (Trametinib + Linsitinib; first compound 0.0025 µM) is reported as 0.981, the relative viability (Trametinib + Linsitinib; first compound 0.007906 µM) is reported as 1.15 and the relative viability (Trametinib + Linsitinib; first compound 0.025 µM) is reported as 1.14. For the same cell line, the relative viability (Trametinib + Linsitinib; first compound 0.07906 µM) was 1.02, the relative viability (Trametinib + Linsitinib; first compound 0.25 µM) was 0.673 and the relative viability ([2]; first compound 0.02 µM) was 0.82. For the same cell line, the relative viability ([2]; first compound 0.06325 µM) was 0.739, the relative viability ([2]; first compound 0.2 µM) was 0.707 and the relative viability ([2]; first compound 0.6325 µM) was 0.845. It also gave a relative viability ([2]; first compound 2 µM) of 0.815.

NCI-H1355 gave a relative viability (Trametinib + Crizotinib; first compound 0.0025 µM) of 1.01, a relative viability (Trametinib + Crizotinib; first compound 0.007906 µM) of 0.869 and a relative viability (Trametinib + Crizotinib; first compound 0.025 µM) of 0.645. It also gave a relative viability (Trametinib + Crizotinib; first compound 0.07906 µM) of 0.655, a relative viability (Trametinib + Crizotinib; first compound 0.25 µM) of 0.47 and a relative viability (Trametinib + Linsitinib; first compound 0.0025 µM) of 0.737. It also gave a relative viability (Trametinib + Linsitinib; first compound 0.007906 µM) of 0.605, a relative viability (Trametinib + Linsitinib; first compound 0.025 µM) of 0.375 and a relative viability (Trametinib + Linsitinib; first compound 0.07906 µM) of 0.433. For the same cell line, the relative viability (Trametinib + Linsitinib; first compound 0.25 µM) was 0.352, the relative viability ([1]; first compound 0.02 µM) was 0.909 and the relative viability ([1]; first compound 0.06325 µM) was 0.97. It also gave a relative viability ([1]; first compound 0.2 µM) of 0.992, a relative viability ([1]; first compound 0.6325 µM) of 0.675 and a relative viability ([1]; first compound 2 µM) of 0.819. It also gave a relative viability ([2]; first compound 0.02 µM) of 0.885, a relative viability ([2]; first compound 0.06325 µM) of 0.924 and a relative viability ([2]; first compound 0.2 µM) of 0.99. It also gave a relative viability ([2]; first compound 0.6325 µM) of 0.916 and a relative viability ([2]; first compound 2 µM) of 0.851.

NCI-H1650 was tested, and the relative viability (Trametinib + Crizotinib; first compound 0.0025 µM) was 1.04, the relative viability (Trametinib + Crizotinib; first compound 0.007906 µM) was 0.779 and the relative viability (Trametinib + Crizotinib; first compound 0.025 µM) was 0.795. It also gave a relative viability (Trametinib + Crizotinib; first compound 0.07906 µM) of 0.69, a relative viability (Trametinib + Crizotinib; first compound 0.25 µM) of 0.302 and a relative viability ([1]; first compound 0.02 µM) of 0.908. For the same cell line, the relative viability ([1]; first compound 0.06325 µM) was 0.889, the relative viability ([1]; first compound 0.2 µM) was 0.856 and the relative viability ([1]; first compound 0.6325 µM) was 1.06. For the same cell line, the relative viability ([1]; first compound 2 µM) was 1.05, the relative viability ([2]; first compound 0.02 µM) was 0.39 and the relative viability ([2]; first compound 0.06325 µM) was 0.352. The relative viability ([2]; first compound 0.2 µM) was 0.371, the relative viability ([2]; first compound 0.6325 µM) was 0.384 and the relative viability ([2]; first compound 2 µM) was 0.328.

IA-LM gave a relative viability (Trametinib + Crizotinib; first compound 0.0025 µM) of 0.771, a relative viability (Trametinib + Crizotinib; first compound 0.007906 µM) of 0.407 and a relative viability (Trametinib + Crizotinib; first compound 0.025 µM) of 0.16. It also gave a relative viability (Trametinib + Crizotinib; first compound 0.07906 µM) of 0.141, a relative viability (Trametinib + Crizotinib; first compound 0.25 µM) of 0.112 and a relative viability (Trametinib + Linsitinib; first compound 0.0025 µM) of 0.574. For the same cell line, the relative viability (Trametinib + Linsitinib; first compound 0.007906 µM) was 0.553, the relative viability (Trametinib + Linsitinib; first compound 0.025 µM) was 0.142 and the relative viability (Trametinib + Linsitinib; first compound 0.07906 µM) was 0.218. It also gave a relative viability (Trametinib + Linsitinib; first compound 0.25 µM) of 0.145, a relative viability ([1]; first compound 0.02 µM) of 0.732 and a relative viability ([1]; first compound 0.06325 µM) of 0.724. It also gave a relative viability ([1]; first compound 0.2 µM) of 0.668, a relative viability ([1]; first compound 0.6325 µM) of 0.615 and a relative viability ([1]; first compound 2 µM) of 0.521.

For NCI-H1666, the relative viability (Trametinib + Crizotinib; first compound 0.0025 µM) was 0.74, the relative viability (Trametinib + Crizotinib; first compound 0.007906 µM) was 0.766 and the relative viability (Trametinib + Crizotinib; first compound 0.025 µM) was 0.72. It also gave a relative viability (Trametinib + Crizotinib; first compound 0.07906 µM) of 0.586, a relative viability (Trametinib + Crizotinib; first compound 0.25 µM) of 0.394 and a relative viability (Trametinib + Linsitinib; first compound 0.0025 µM) of 0.56. It also gave a relative viability (Trametinib + Linsitinib; first compound 0.007906 µM) of 0.524, a relative viability (Trametinib + Linsitinib; first compound 0.025 µM) of 0.426 and a relative viability (Trametinib + Linsitinib; first compound 0.07906 µM) of 0.571. The relative viability (Trametinib + Linsitinib; first compound 0.25 µM) was 0.388, the relative viability ([1]; first compound 0.02 µM) was 0.847 and the relative viability ([1]; first compound 0.06325 µM) was 0.822. It also gave a relative viability ([1]; first compound 0.2 µM) of 0.704, a relative viability ([1]; first compound 0.6325 µM) of 1.17 and a relative viability ([1]; first compound 2 µM) of 0.927. It also gave a relative viability ([2]; first compound 0.02 µM) of 0.896, a relative viability ([2]; first compound 0.06325 µM) of 0.861 and a relative viability ([2]; first compound 0.2 µM) of 0.847. For the same cell line, the relative viability ([2]; first compound 0.6325 µM) was 0.765 and the relative viability ([2]; first compound 2 µM) was 0.737.

Work on HCC-78 yielded a relative viability (Trametinib + Crizotinib; first compound 0.0025 µM) of 0.318, a relative viability (Trametinib + Crizotinib; first compound 0.007906 µM) of 0.275 and a relative viability (Trametinib + Crizotinib; first compound 0.025 µM) of 0.252. It also gave a relative viability (Trametinib + Crizotinib; first compound 0.07906 µM) of 0.285, a relative viability (Trametinib + Crizotinib; first compound 0.25 µM) of 0.215 and a relative viability (Trametinib + Linsitinib; first compound 0.0025 µM) of 0.543. It also gave a relative viability (Trametinib + Linsitinib; first compound 0.007906 µM) of 0.323, a relative viability (Trametinib + Linsitinib; first compound 0.025 µM) of 0.314 and a relative viability (Trametinib + Linsitinib; first compound 0.07906 µM) of 0.354. It also gave a relative viability (Trametinib + Linsitinib; first compound 0.25 µM) of 0.36, a relative viability ([1]; first compound 0.02 µM) of 0.335 and a relative viability ([1]; first compound 0.06325 µM) of 0.26. It also gave a relative viability ([1]; first compound 0.2 µM) of 0.326, a relative viability ([1]; first compound 0.6325 µM) of 0.337 and a relative viability ([1]; first compound 2 µM) of 0.372. For the same cell line, the relative viability ([2]; first compound 0.02 µM) was 0.907, the relative viability ([2]; first compound 0.06325 µM) was 0.945 and the relative viability ([2]; first compound 0.2 µM) was 0.951. It also gave a relative viability ([2]; first compound 0.6325 µM) of 0.903 and a relative viability ([2]; first compound 2 µM) of 0.913.

Work on H3255 yielded a relative viability (Trametinib + Crizotinib; first compound 0.0025 µM) of 0.845, a relative viability (Trametinib + Crizotinib; first compound 0.007906 µM) of 0.931 and a relative viability (Trametinib + Crizotinib; first compound 0.025 µM) of 0.799. For the same cell line, the relative viability (Trametinib + Crizotinib; first compound 0.07906 µM) was 0.715, the relative viability (Trametinib + Crizotinib; first compound 0.25 µM) was 0.48 and the relative viability (Trametinib + Linsitinib; first compound 0.0025 µM) was 1.02. For the same cell line, the relative viability (Trametinib + Linsitinib; first compound 0.007906 µM) was 0.822, the relative viability (Trametinib + Linsitinib; first compound 0.025 µM) was 0.795 and the relative viability (Trametinib + Linsitinib; first compound 0.07906 µM) was 0.855. The relative viability (Trametinib + Linsitinib; first compound 0.25 µM) was 0.575, the relative viability ([1]; first compound 0.02 µM) was 0.91 and the relative viability ([1]; first compound 0.06325 µM) was 0.935. The relative viability ([1]; first compound 0.2 µM) was 0.874, the relative viability ([1]; first compound 0.6325 µM) was 0.888 and the relative viability ([1]; first compound 2 µM) was 0.889. It also gave a relative viability ([2]; first compound 0.02 µM) of 0.578, a relative viability ([2]; first compound 0.06325 µM) of 0.549 and a relative viability ([2]; first compound 0.2 µM) of 0.493. For the same cell line, the relative viability ([2]; first compound 0.6325 µM) was 0.615 and the relative viability ([2]; first compound 2 µM) was 0.54.
